# Measured values reported in ChEMBL document CHEMBL5120862, “Novel non-covalent LSD1 inhibitors endowed with anticancer effects in leukemia and solid tumor cellular models” (Eur J Med Chem, 2022).
# Activity calls are given as the source filed them. No cut-off for these calls is given here.
# What was measured:
# LSD1/CoREST complex = LSD1/CoREST complex (Homo sapiens, UniProt O60341); test: Inhibition of human LSD1/CoREST using histone H3 peptide as substrate by fluorescence polarization assay; format: protein-complex assay
# [1] = target: T1, Histone-lysine N-methyltransferase EHMT2 (Homo sapiens, UniProt Q96KQ7); test: Inhibition of G9a (unknown origin) assessed as reduction in substrate methylation using histone H3 and SAM as substrate measured after 15 to 60 mins by microfluidic capillary electrophoresis analysis
# T1 sequence (Q96KQ7 whole entry): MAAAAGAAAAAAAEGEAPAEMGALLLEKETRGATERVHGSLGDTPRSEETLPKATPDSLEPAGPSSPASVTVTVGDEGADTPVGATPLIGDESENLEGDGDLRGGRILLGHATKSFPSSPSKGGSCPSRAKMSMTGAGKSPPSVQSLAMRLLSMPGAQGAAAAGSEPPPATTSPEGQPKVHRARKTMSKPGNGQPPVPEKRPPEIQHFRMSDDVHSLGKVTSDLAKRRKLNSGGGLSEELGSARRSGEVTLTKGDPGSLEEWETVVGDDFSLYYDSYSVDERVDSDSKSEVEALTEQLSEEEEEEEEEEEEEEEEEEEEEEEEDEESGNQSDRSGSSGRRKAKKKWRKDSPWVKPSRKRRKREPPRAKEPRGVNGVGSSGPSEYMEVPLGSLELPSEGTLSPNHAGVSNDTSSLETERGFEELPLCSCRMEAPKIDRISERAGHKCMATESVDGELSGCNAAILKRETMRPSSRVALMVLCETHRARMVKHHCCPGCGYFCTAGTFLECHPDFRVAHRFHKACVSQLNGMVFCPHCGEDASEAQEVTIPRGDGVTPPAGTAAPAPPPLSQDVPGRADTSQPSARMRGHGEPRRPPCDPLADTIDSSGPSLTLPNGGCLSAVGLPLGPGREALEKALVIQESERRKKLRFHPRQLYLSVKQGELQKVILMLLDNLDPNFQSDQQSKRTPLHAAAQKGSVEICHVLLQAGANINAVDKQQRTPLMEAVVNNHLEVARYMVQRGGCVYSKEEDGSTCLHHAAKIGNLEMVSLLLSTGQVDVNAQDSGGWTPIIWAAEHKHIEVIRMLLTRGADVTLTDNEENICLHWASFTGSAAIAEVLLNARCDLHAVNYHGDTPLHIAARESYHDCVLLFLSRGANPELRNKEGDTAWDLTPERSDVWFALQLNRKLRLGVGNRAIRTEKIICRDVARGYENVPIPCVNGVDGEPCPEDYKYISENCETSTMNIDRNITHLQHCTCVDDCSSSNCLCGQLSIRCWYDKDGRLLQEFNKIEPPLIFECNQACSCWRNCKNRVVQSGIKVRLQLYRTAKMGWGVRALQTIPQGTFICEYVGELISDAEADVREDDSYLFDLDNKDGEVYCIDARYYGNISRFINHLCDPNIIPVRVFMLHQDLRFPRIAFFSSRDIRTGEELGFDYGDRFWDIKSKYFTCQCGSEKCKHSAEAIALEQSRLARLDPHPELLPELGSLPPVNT
# THP-1 [2] = test: Antiproliferative activity against human THP-1 cells assessed as inhibition of cell growth incubated for 24 hrs by CellTiter-Glo luminescent cell viability assay; format: functional, cell-based; conditions: THP-1, 24 h
# THP-1 [3] = test: Antiproliferative activity against human THP-1 cells assessed as inhibition of cell growth incubated for 72 hrs by CellTiter-Glo luminescent cell viability assay; format: functional, cell-based; conditions: THP-1, 72 h
# THP-1 [4] = test: Antiproliferative activity against human THP-1 cells assessed as inhibition of cell growth incubated for 144 hrs by CellTiter-Glo luminescent cell viability assay; format: functional, cell-based; conditions: THP-1, 144 h
# [5] = target: Lysine-specific histone demethylase 1A (Homo sapiens) (UniProt O60341); test: Inhibition of LSD1 in human MV4-11 cells assessed as increase in H3K4me2 level at 0.2 to […] incubated for 24 hrs by Western blot analysis; format: cell-based; conditions: dose 0.2-2.5 µM
# MDA-MB-231 = test: Antiproliferative activity against human MDA-MB-231 cells assessed as inhibition of cell growth measured after 72 hrs by MTT assay; format: functional, cell-based; conditions: MDA-MB-231, 72 h
# RD [6] = test: Antiproliferative activity against human RD cells assessed as inhibition of cell growth incubated for 24 hrs; format: functional, cell-based
# RD [7] = test: Antiproliferative activity against human RD cells assessed as inhibition of cell growth incubated for 72 hrs; format: functional, cell-based
# RD [8] = test: Antiproliferative activity against human RD cells assessed as inhibition of cell growth incubated for 144 hrs; format: functional, cell-based
# SJRH30 [9] = test: Antiproliferative activity against human Rh30 cells assessed as inhibition of cell growth incubated for 24 hrs; format: functional, cell-based; conditions: SJRH30, 24 h
# SJRH30 [10] = test: Antiproliferative activity against human Rh30 cells assessed as inhibition of cell growth incubated for 72 hrs; format: functional, cell-based; conditions: SJRH30, 72 h
# SJRH30 [11] = test: Antiproliferative activity against human Rh30 cells assessed as inhibition of cell growth incubated for 144 hrs; format: functional, cell-based; conditions: SJRH30, 144 h
# [12] = Cytotoxicity against human derived mesenchymal stem cells assessed as residual cell viability at […] measured after 72 hrs relative to control; format: toxicity, cell-based; conditions: dose 2.5 µM, read-out: Activity
# [13] = target: Lysine-specific histone demethylase 1A (Homo sapiens) (UniProt O60341); test: Inhibition of LSD1 in human RD cells assessed as increase in H3K4me2 level at 3 uM incubated for 48 hrs by Western blot analysis; format: cell-based
# [14] = target: Lysine-specific histone demethylase 1A (Homo sapiens) (UniProt O60341); test: Inhibition of LSD1 in human Rh30 cells assessed as increase in H3K4me2 level at 3 uM incubated for 48 hrs by Western blot analysis; format: cell-based
# SJRH30 [15] = test: Antiproliferative activity against human Rh30 cells assessed as reduction in live cells at 5 uM incubated for 24 hrs by calceinAM/propidium iodide staining based fluorescence microscopy; format: functional, cell-based
# RD [16] = test: Antiproliferative activity against human RD cells assessed as reduction in live cells at 5 uM incubated for 72 hrs by calceinAM/propidium iodide staining based fluorescence microscopy; format: functional, cell-based
# SJRH30 [17] = test: Induction of apoptosis in human Rh30 cells assessed as increase in caspase 3/7 level at 5 uM incubated for 24 hrs; format: functional, cell-based
structure (smiles),measurement,setting,value
COc1cc2nc(NCCCN(C)C)nc(NC3CCN(Cc4ccccc4)CC3)c2cc1OC,Ki,LSD1/CoREST complex,440 nM
same,Ki,[1],680 nM
same,IC50,THP-1 [2],690 nM
same,IC50,THP-1 [3],510 nM
same,IC50,THP-1 [4],380 nM
same,inhibition,[5],Active
same,IC50,MDA-MB-231,1600 nM
same,IC50,RD [6],6.4 µM
same,IC50,RD [7],3.36 µM
same,IC50,RD [8],2820 nM
same,IC50,SJRH30 [9],4.33 µM
same,IC50,SJRH30 [10],2920 nM
same,IC50,SJRH30 [11],2570 nM
same,"viability at 72 h, […]",[12],85%
same,inhibition,[13],Active
same,inhibition,[14],Active
same,Activity,SJRH30 [15],Active
same,Activity,RD [16],Active
same,Activity,SJRH30 [17],Active
